Data from article PMC11984905, “Chiral Switch of Gadopiclenol: New Standards in MRI Probes” (Advanced Science, 2025).

Assays:
Assay type in all cases: physicochemical
[1] = Stability, protonation and conditional stability constants (pGd) of Gd(III)-complexes (out-of-cell pH-potentiometry, 1H NMR relaxometry, competition with AAZTA); conditions: for conditional stability higher than that of the racemic counterparts: logK^c GdL and pGd; for conditional stability higher than that of the racemic counterparts / pGd / logK^cGdL and pGd higher than that of the parent [Gd(PCTA)]: pH 7.4; for logK^c GdL: conditional stability constant at pH 7.4; for *logKGd(H2L): diprotonated out-of-cage intermediate; for pGd: pGd = -log[Gd^3+]free, [Gd^3+]tot = 1 µM, [L]tot = 10 µM; for logKGdLH-1: deprotonation of inner-sphere water; for stability constant of Gd(III)-complex higher than that of the racemic complex: vs [Gd(rac-L1)]3- and [Gd(rac-L2)]
Procedure: (§1) The protonation constants of ligands, the stability and protonation constants of Ca(II)‐ and Zn(II)‐complexes formed with rac‐L1, ent‐L1, rac‐L2, and ent‐L2 ligands were determined by pH‐potentiometric titration. The metal‐to‐ligand concentration ratio was 1:1 (the concentration of the ligand was generally 0.002 M). The protonation constants of the Cu(II)‐ and Gd(III)‐complexes were determined using pH‐potentiometry by titrating the pre‐prepared complexes from pH 2.0 to 12.0 with 0.2 M NaOH. The stability constants of the Gd(III)‐complexes with rac‐L1 and ent‐L1 ligands were determined by the “out‐of‐cell” technique because of their slow formation reaction. The pH range of the complexation equilibria and the time needed to reach the equilibria were determined by relaxometry. Eight–eight Gd(III) – rac‐L1 and Gd(III) – ent‐L1 samples were prepared, with pH values in the range of 1.7–3.0 at equilibrium ([Gd^3+] = [L] = 0.002 M). The samples were kept at 25 °C for 6 weeks to reach equilibrium. For the calculation of the stability constants of the [Gd(rac‐L1)]^3− and [Gd(ent‐L1)]^3− complexes, besides the protonation constants of ligands and the Gd(III) complexes, the stability constants of the di‐protonated [^*Gd(H2 rac‐L1)]^− and [^*Gd(H2 […])]^− out‐of‐cage complexes (considered as intermediates) was also used as fixed values, which were calculated from the pH‐potentiometric titration curve of the Gd(III) – rac‐L1 and Gd(III) – ent‐L1 system obtained in the pH range of 1.7–7.0.
(§2) For the pH measurements and titrations, the Metrohm 888 Titrando titration workstation Metrohm‐6.0234.110 combined electrode was used. Equilibrium measurements were carried out at a constant ionic strength (0.15 M NaCl) in 6 mL samples at 25 °C. The solutions were stirred, and N2 was bubbled through them. The titrations were made in the pH range 1.7–12.0. KH‐Phthalate (pH 4.005) and borax (pH 9.177) buffers were used to calibrate the pH meter. For the calculation of [H^+] from the measured pH values, the method proposed by Irving et al. was used as follows.^[ [46] ^] A 0.01M HCl solution was titrated with standardized NaOH solution at 0.15 M NaCl ionic strength. The differences (A) between the measured (pHread) and calculated pH (‐log[H^+]) values were used to obtain the equilibrium H^+ concentration from the pH values measured in the titration experiments (A = 0.02). For the equilibrium calculations, the stoichiometric water ionic product (pK w) was also needed in order to calculate [OH^−] values under basic conditions. The VNaOH – pHread data pairs of the HCl – NaOH titration obtained in the pH range 10.5–12.0 were used to calculate the pK w value (pK w = 13.83).
The stability constant of Gd(III)‐complexes with rac‐L2 and ent‐L2 ligands were determined by the measurement of the proton relaxation rates (r 1) studying the competition reaction of rac‐L2 and ent‐L2 ligands with AAZTA for Gd(III) ion at pH = 4.0 in 0.15 M NaCl solution. In these experiments, the concentration of Gd^3+, rac‐L2, and ent‐L2 ligands was 2.0 mM, while that of the AAZTA was varied between 1.0 and 6.0 mM (5 × 1.5 mL samples). The pH was adjusted to pH 4.0 by stepwise addition of concentrated NaOH or HCl solutions. The samples were kept at 70 °C for a month and then at 25°C for two months in order to attain the equilibrium (the time needed to reach the equilibria was determined by ^1H‐NMR relaxometry). ^1H‐NMR relaxometric measurement of Gd(III) – rac‐L2 – AAZTA and Gd(III) – ent‐L2 – AAZTA systems were performed with a Bruker Avance III 400 (9.4 T) equipped with BB inverse z gradient probe (5 mm). […]

[2] = Stability and protonation constants of Zn(II)-complexes (pH-potentiometry); conditions: 0.15 M NaCl, 25 °C
Procedure: as §1, §2
The stability and protonation constants of Ca(II)-, Zn(II)-, Cu(II)- and Gd(III)-complexes of rac-L1, ent-L1, rac-L2 and ent-L2, defined by Equations (S2) and (S3), were investigated by pH-potentiometry, spectrophotometry and ^1H NMR relaxometry at 25 °C in 0.15 M NaCl solution.
where i=0, 1, 2,…5. The KML and KMHiL values characterizing the formation of Ca(II)-, Zn(II)-, Cu(II)- and Gd(III)-complexes with rac-L1, ent-L1, rac-L2 and ent-L2 ligands have been calculated from the pH-potentiometric titration data obtained at 1:1 metal to ligand concentration ratios. In calculating the equilibrium constants, the best fitting of the mL NaOH – pH data has been obtained by assuming the formation of ML, MHL, MH2L, MH3L, MH4L, MH5L and MLH-1 species. The formation of the deprotonated [GdLH-1]^- complexes with rac-L2 and ent-L2 ligands takes place at pH>9.0, as indicated by the base consumption in the titration curves. This deprotonation of the Gd(III)-complexes occurs on the inner-sphere water molecule.

[3] = Protonation constants of the ligands (pH-potentiometry); conditions: 0.15 M NaCl, 25 °C; for ΣlogKi^H: total basicity
Procedure: as §1, §2
The protonation constants of ligands, defined by Equation (S1), were determined by pH-potentiometry.
where i=1, 2…7. Standard deviations (3σ) are shown in parentheses. In Table S16, the logKi^H values of rac-L1 and rac-L2 can be regarded as the weighted average of the given protonation constant characterizing the basicity of the related protonation site in the different stereoisomers.

SMILES	conditional stability higher than that of the racemic counterparts [1]	logK ZnL [2]	logKZnH2L [2]	logKZnH3L [2]	logKZnH4L [2]	logKZnHL [2]	logK GdL ([1]; 0.15 M NaCl, 25 °C)	logKGdH2L ([1]; 0.15 M NaCl, 25 °C)	logKGdH3L ([1]; 0.15 M NaCl, 25 °C)	logKGdHL ([1]; 0.15 M NaCl, 25 °C)	logK^c GdL ([1]; 0.15 M NaCl)	*logKGd(H2L) ([1]; 0.15 M NaCl, 25 °C)	pGd ([1]; 0.15 M NaCl)	logK1^H [3]	logK2^H [3]	logK3^H [3]	logK4^H [3]	logK5^H [3]	ΣlogKi^H [3]	logK^cGdL and pGd higher than that of the parent [Gd(PCTA)] [1]	further results
O=C([O-])CCC(C(=O)[O-])N1CCN(C(CCC(=O)[O-])C(=O)[O-])Cc2cccc(n2)CN(C(CCC(=O)[O-])C(=O)[O-])CC1.[Gd+3] (racemic) [[Gd(ent‐L1)]^3−]	0.6 – 1.5 logK unit																				
O=C(CCC(C(=O)[O-])N1CCN(C(CCC(=O)NCC(O)CO)C(=O)[O-])Cc2cccc(n2)CN(C(CCC(=O)NCC(O)CO)C(=O)[O-])CC1)NCC(O)CO.[Gd+3] (stereo not drawn) [[Gd(ent‐L2)]]	0.6 – 1.5 logK unit																				
O=C(O)CCC(C(=O)O)N1CCN(C(CCC(=O)O)C(=O)O)Cc2cccc(n2)CN(C(CCC(=O)O)C(=O)O)CC1 (stereo not drawn) [ent‐L1]		20.77 (2)	4.76 (2)	4.18 (2)	3.29 (2)	5.26 (2)	20.17 (9)	4.52 (1)	4.15 (2)	5.28 (1)	16.85	4.00 (3)	17.80	10.62 (1)	6.82 (1)	5.50 (2)	4.89 (2)	4.19 (2)	38.20	0.6 – 1.2 logK unit	stability constant of Gd(III)-complex higher than that of the racemic complex [1]: 1.5 logK unit; logK6^H [3]: 3.88 (2); logK7^H [3]: 2.30 (2)

More lines, main results first:

conditional stability higher than that of the racemic counterparts [1]	logK ZnL [2]	logKZnH2L [2]	logKZnH3L [2]	logKZnH4L [2]	logKZnHL [2]	logK GdL ([1]; 0.15 M NaCl, 25 °C)	logKGdH2L ([1]; 0.15 M NaCl, 25 °C)	logKGdH3L ([1]; 0.15 M NaCl, 25 °C)	logKGdHL ([1]; 0.15 M NaCl, 25 °C)	logK^c GdL ([1]; 0.15 M NaCl)	*logKGd(H2L) ([1]; 0.15 M NaCl, 25 °C)	pGd ([1]; 0.15 M NaCl)	logK1^H [3]	logK2^H [3]	logK3^H [3]	logK4^H [3]	logK5^H [3]	ΣlogKi^H [3]	logK^cGdL and pGd higher than that of the parent [Gd(PCTA)] [1]	SMILES	further results
	19.54(2)	5.01 (2)	3.91 (3)	3.88 (3)	5.24 (4)	18.65(5)	4.43 (3)	4.35 (3)	5.32 (2)	15.34	3.58 (2)	16.33	10.58 (1)	6.99 (1)	5.50 (1)	4.82 (1)	4.23 (1)	38.11		O=C(O)CCC(C(=O)O)N1CCN(C(CCC(=O)O)C(=O)O)Cc2cccc(n2)CN(C(CCC(=O)O)C(=O)O)CC1 (racemic) [rac‐L1, 2,2’,2’’-[3,6,9,15-tetraazabicyclo[9.3.1]pentadeca-1(15),11,13-triene-3,6,9-triyl]tripentanedioic acid]	logKGdH4L ([1]; 0.15 M NaCl, 25 °C): 2.25 (3); logK6^H [3]: 3.65 (1); logK7^H [3]: 2.34 (2)
	18.66 (3)				3.77 (3)	18.96 (7)				16.76		17.70	9.58 (1)	5.96 (2)	4.30 (3)	2.86 (3)		22.70	0.6 – 1.2 logK unit	O=C(CCC(C(=O)O)N1CCN(C(CCC(=O)NCC(O)CO)C(=O)O)Cc2cccc(n2)CN(C(CCC(=O)NCC(O)CO)C(=O)O)CC1)NCC(O)CO (racemic) [rac‐L2]	logKGdLH-1 ([1]; 0.15 M NaCl, 25 °C): 11.15 (4)
	20.13 (3)				3.27 (3)	20.36 (3)				17.31		18.27	10.43(1)	5.95 (1)	4.08 (1)	2.05 (2)		22.51	0.6 – 1.2 logK unit	O=C(CCC(C(=O)O)N1CCN(C(CCC(=O)NCC(O)CO)C(=O)O)Cc2cccc(n2)CN(C(CCC(=O)NCC(O)CO)C(=O)O)CC1)NCC(O)CO (stereo not drawn) [ent‐L2]	logKGdLH-1 ([1]; 0.15 M NaCl, 25 °C): 11.66 (1); stability constant of Gd(III)-complex higher than that of the racemic complex [1]: 1.5 logK unit
